Assay results from US20250243174A1, “ANTITUMORAL COMPOUNDS” (PHARMA MAR, S.A., priority 2021, published 2025).
Like-named read-outs stand apart in the source and are kept apart here.

Experiments:
A549 = test: SRB colorimetric cytotoxicity assay, A549; format: cell-based; conditions: Homo sapiens, read-out: GI50 (M) A549
Source text: (§1) The aim of this assay is to evaluate the in vitro cytostatic (ability to delay or arrest tumor cell growth) or cytotoxic (ability to kill tumor cells) activity of the samples being tested.
(§2) A colorimetric assay, using sulforhodamine B (SRB) reaction has been adapted to provide a quantitative measurement of cell growth and viability (using the technique developed by Skehan et al., J. Natl. Cancer Inst. 1990 and following the protocol detailed in V. Vichai and K. Kirtikara (2006) Nature Protoc. 1, 1112-1116.)
(§3) This form of assay employs 96-well cell culture microplates. All the cell lines used in this study were obtained from the American Type Culture Collection (ATCC), unless otherwise indicated, and derive from different types of human cancer.
(§4) Cells were maintained in Dulbecco's Modified Eagle Medium (DMEM) (for A549, HT-29 and MDA-MB-231) or RPMI (for PSN-1) supplemented with 10% Fetal Bovine Serum (FBS), 2 mM L-glutamine, 100 U/mL penicillin and 100 U/mL streptomycin at 37° C., 5% CO2 and 98% humidity. For the experiments, cells were harvested from subconfluent cultures using trypsinization and resuspended in fresh medium before counting and plating.
(§5) Cells were seeded in 96 well microtiter plates, at 5×10^3 cells per well in aliquots of 150 μL, and allowed to attach to the plate surface for 18 hours (overnight) in drug free medium. After that, one control (untreated) plate of each cell line was fixed (as described below) and used for time zero reference value. Culture plates were then treated with test compounds (50 μL aliquots of 4× concentrated compound stock solutions made in complete culture medium) using ten serial dilutions (concentrations ranging from […]) and triplicate cultures (final concentration of DMSO being 1%). After 72 hours treatment, the antitumor effect was measured by using the SRB methodology: Briefly, cells were washed twice with PBS, fixed for 15 min in 1% glutaraldehyde solution at room temperature, rinsed twice in PBS, and stained in 0.4% SRB solution for 30 min at room temperature. Cells were then rinsed several times with 1% acetic acid solution and air-dried at room temperature. SRB was then extracted in 10 mM trizma base solution and the absorbance measured in an automated spectrophotometric plate reader at 490 nm. Effects on cell growth and survival were estimated by applying the NCI algorithm (Boyd M R and Paull K D. Drug Dev. Res. 1995, 34, 91-104).
(§6) Using the mean±SD of triplicates, a dose-response curve was automatically generated using nonlinear regression analysis to a 4-parameter logistic curve. Three reference parameters were calculated (NCI algorithm) by automatic interpolation: GI50=compound concentration that produces […] cell growth inhibition, as compared to control cultures.

HT29 = test: SRB colorimetric cytotoxicity assay, HT29; format: cell-based; conditions: Homo sapiens, read-out: GI50 (M) HT29
Source text: as §1, §2, §3, §4, §5, §6

PSN-1 = test: SRB colorimetric cytotoxicity assay, PSN-1; format: cell-based; conditions: Homo sapiens, read-out: GI50 (M) PSN-1
Source text: as §1, §2, §3, §4, §5, §6

H460 xenografts = test: Example 5, NSCLC xenograft model H460; format: in vivo; conditions: for tumor reduction compared to placebo: higher doses 16, 2 or 1 mg/kg; for TV, median (IQR) / Median survival time: iv Q7dx3; for TV, median (IQR): high dose: PM060184 16, Comp. 2 2, Comp. 3 1 mg/kg; for antitumor activity compared to PM060184 (16 mg/kg) / mean time frame during which the animals had tumor remission / mean body weight reduction: compound 2 2.0 mg/kg, compound 3 1.0 mg/kg; for animals with complete tumor remission: highest dose: compound 2 2.0, compound 3 1.0 mg/kg; for mean body weight reduction: recorded on Day 9
Experimental: Female athymic nu/nu mice (Harlan Laboratories Models, S.L. Barcelona, Spain or Envigo, Spain) were utilized for all experiments. Animal were housed in individually ventilated cages Sealsafe® Plus, Techniplast S.P.A.), up to ten per cage on a 12-hour light-dark cycle at 21-23° C. and 40-60% humidity. Mice were allowed free access to irradiated standard rodent diet (Tecklad 2914C) and sterilized water. Animals were acclimated for at least 5 days prior to tumor implantation with a tumor cell suspension.
H460 cells were maintained in vitro at 37° C. with 5% CO2 in Dulbecco's Modified Eagle's Medium (Sigma-Aldrich, Co). Culture cells were passaged every 3 to 5 days upon reaching confluence. Each animal was subcutaneously implanted (on the right flank using 26G needle and a 1 cc syringe) at 4-6 weeks of age with 5×10^6 H460 cells suspended in 0.05 mL of a solution consisting of 50% Matrigel® (Corning Incorporated Life Sciences) and 50% medium without serum or antibiotics.
All treatments were intravenously administered on a weekly basis at their MTD, ¼ MTD and 1/16 MTD (high, medium and low dose).
Briefly: • 4 to 6 week-old athymic nu/nu female mice were subcutaneously implanted with tumor cells growing in culture. • When tumors reached a certain volume, tumor bearing animals (N=8-10/group) were randomly allocated into treatment groups. • Tumor dimensions and body weights were recorded 2-3 times per week starting from the first day of treatment (Day 0). Treatments producing >20% lethality and/or 20% net body weight loss were considered toxic. Tumor volume was calculated using the equation (a·b^2)/2, where a and b were the longest and shortest diameters, respectively. Animals were euthanized when their tumors reached ca. 2,000 mm^3 and/or severe necrosis was seen. • Median was calculated for tumor volume on each measurement day. • Antitumor effect was assessed comparing tumor volume data from groups following the 1st, 2nd, 3rd study weeks, or more depending on the case, using a two-tailed Mann-Whitney U test. The data are presented as medians and interquartile range (IQR). • Complete tumor regression (CR) was defined when tumor volume<63 mm^3 for 2 or more consecutive measurements. • Treatment tolerability was assessed by monitoring body weight evolution, clinical signs of systemic toxicity as well as evidences of local damage at the injection site.
PM060184 was provided in the form of freeze-dried vials of lyophilized product. Each vial was reconstituted with water for infusion to a concentration of 2.5 mg/mL.
Compounds 2 and 3 were provided in the powder form and were solubilized with hydroxy-propyl-β-cyclodextrin (HPβCD), reaching a concentration of 1 mg/ml or 0.2 mg/ml, respectively. Placebo was provided in the form of lyophilised cake containing 1.2 g of hydroxy-propyl-β-cyclodextrin (HPβCD) which was reconstituted with water for infusion.
In these experiments, compounds 2, 3 and PM060184, as well as placebo, were intravenously administered once per week for 3 consecutive weeks, on Days 0, 7 and 14, whenever it was possible.
The experiment was carried out as previously explained. When tumors reached ca. 160-170 mm^3, tumor bearing animals (N=10/group) were randomly allocated into the following treatment groups:
Treatments were initiated on Day 0.

[1] = high dose: PM060184 16.0, Comp. 2 2.0, Comp. 3 1.0 mg/kg
[2] = high dose: compound 2 2.0, compound 3 1.0, PM060184 16 mg/kg
[3] = low dose: PM060184 1.0, Comp. 2 0.125, Comp. 3 0.0625 mg/kg
[4] = medium dose: PM060184 4.0, Comp. 2 0.5, Comp. 3 0.25 mg/kg

| Structure (SMILES) | tumor reduction compared to placebo (H460 xenografts; Day 7) | TV, median (IQR) (H460 xenografts; Day 7) | TV, median (IQR) (H460 xenografts; Day 14) | TV, median (IQR) (H460 xenografts; Day 21) | TV, median (IQR) (H460 xenografts; Day 28) | TV, median (IQR) (H460 xenografts; Day 35) | Median survival time (H460 xenografts; [1]) [days] | tumor remissions lasted (H460 xenografts; [2]) | Median survival time (H460 xenografts; [3]) [days] | Median survival time (H460 xenografts; [4]) [days] | GI50 (A549; A549, 72 h) [M] | GI50 (HT29; HT-29, 72 h) [M] | GI50 (PSN-1; PSN1, 72 h) [M] | antitumor activity compared to PM060184 (16 mg/kg) (H460 xenografts) | mean time frame during which the animals had tumor remission (H460 xenografts) [days] | animals with complete tumor remission (H460 xenografts) [%] | mean body weight reduction (H460 xenografts) | also measured |
| --- | --- | --- | --- | --- | --- | --- | --- | --- | --- | --- | --- | --- | --- | --- | --- | --- | --- | --- |
| C/C=C\C[C@@H](C/C=C\NC(=O)[C@@H](NC(=O)\C=C/C=C\C(C)=C\[C@H](C)[C@@H]1CC=C(OC)C(=O)O1)C(C)(C)C)OC(N)=O [PM060184, reference compound] | very strong, statistically significant tumor reduction | 100.1 (80.6-119.0) mm3 | 97.8 (74.5-149.3) mm3 | 129.4 (83.5-172.3) mm3 | 631.0 (454.0-873.9) mm3 | 1470 (1470-1666) mm3 | 37 | two | 16 | 30 | – | – | – | – | – | – | – | GI50 (A549; A549, 72 hours treatment, SRB): 1.71e-10 M; GI50 (HT29; HT-29, 72 hours treatment, SRB): 8.3e-11 M; GI50 (PSN-1; PSN1, 72 hours treatment, SRB): 1.87e-10 M; animals with complete tumor remission (number out of 10) (H460 xenografts; PM060184 16 mg/kg): Four out of 10; body weight decrease (H460 xenografts; recorded on Day 12, PM060184 16 mg/kg): ca. −6.8% |
| COC1=CC[C@@H]([C@@H](C)/C=C(C)/C=C\C=C/C(=O)N[C@H](C(=O)N/C=C\C[C@H](CC=C(C)C)OC(N)=O)C(C)(C)C)OC1=O [Compound 3] | very strong, statistically significant tumor reduction | 123.9 (93.4-157.6) mm3 | 80.3 (71.0-83.5) mm3 | 59.3 (38.7-62.5) mm3 | 77.6 (55.3-85.1) mm3 | 374.8 (257.4-438.2) mm3 | – | more than 45.1 days | 14 | – | 5.98e-11 | 2.22e-11 | 1.43e-10 | stronger, statistically significant, antitumor activity | 7.8 | 100 | ca. −18.5% | antitumor activity of compound 3 compared to compound 2 (H460 xenografts; at the MTD's, 1.0 mg/kg or 2.0 mg/kg): statistically significant higher antitumor activity than compound 2; Median survival time (H460 xenografts; high dose: PM060184 16.0, Comp. 2 2.0, Comp. 3 1.0 mg/kg, 1 mg/kg): 45.5 days; Median survival time (H460 xenografts; high dose: PM060184 16.0, Comp. 2 2.0, Comp. 3 1.0 mg/kg, listed as Comp. 3, 1 mg/kg): 48 days; Median survival time (H460 xenografts; medium dose: PM060184 4.0, Comp. 2 0.5, Comp. 3 0.25 mg/kg, 0.25 mg/kg): 40 days; Median survival time (H460 xenografts; medium dose: PM060184 4.0, Comp. 2 0.5, Comp. 3 0.25 mg/kg, listed as Comp. 3, 0.25 mg/kg): 38.5 days |
| COC1=CC[C@@H]([C@@H](C)/C=C(C)/C=C\C=C/C(=O)N[C@H](C(=O)N/C=C\C[C@H](C/C=C(\C)F)OC(N)=O)C(C)(C)C)OC1=O [Compound 2] | very strong, statistically significant tumor reduction | 114.7 (97.2-131.6) mm3 | 80.9 (61.1-109.3) mm3 | 53.5 (33.4-59.7) mm3 | 95.0 (73.2-119.1) mm3 | 505.4 (428.9-583.7) mm3 | 45.5 | more than 48 days | 14 | 40 | 4.55e-11 | 1.31e-11 | 2.27e-11 | stronger, statistically significant, antitumor activity | 8.8 | 100 | ca. −13.4% | tumor remissions lasted (H460 xenografts; medium dose: compound 2 0.5 mg/kg): 30.9 days |
